Data reported in PubChem BioAssay AID1259407 (Chemical Carcinogenesis Research Information System (CCRIS), 2018).
The source made the active and inactive calls. No rule for the calls is given here.

Test system: CCRIS mutagenicity, Ames/micronucleus/aberration tests
Test: CCRIS mutagenicity studies

Measured: mutagenic call

CC1(C)S[C@@H]2[C@H](NC(=O)[C@H](N)c3ccccc3)C(=O)N2[C@H]1C(=O)O
inactive: End Point: IN VITRO CHROMOSOMAL ABERRATIONS, Test System: CHO CELLS, Metabolic Activation: NONE inactive; negative; testing limited by solubility of chemical | End Point: IN VITRO CHROMOSOMAL ABERRATIONS, Test System: CHO CELLS, Metabolic Activation: RAT, LIVER, S-9, AROCLOR 1254 inactive; negative; testing limited by solubility of chemical | Test System: AMES SALMONELLA TYPHIMURIUM, Strain/Indicator: TA98, Metabolic Activation: HAMSTER, LIVER, S-9, AROCLOR 1254, Method: PREINCUBATION inactive; negative | Test System: AMES SALMONELLA TYPHIMURIUM, Strain/Indicator: TA98, Metabolic Activation: NONE, Method: PREINCUBATION inactive; negative | Test System: AMES SALMONELLA TYPHIMURIUM, Strain/Indicator: TA98, Metabolic Activation: RAT, LIVER, S-9, AROCLOR 1254, Method: PREINCUBATION inactive; negative | Test System: AMES SALMONELLA TYPHIMURIUM, Strain/Indicator: TA100, Metabolic Activation: HAMSTER, LIVER, S-9, AROCLOR 1254, Method: PREINCUBATION inactive; negative | Test System: AMES SALMONELLA TYPHIMURIUM, Strain/Indicator: TA100, Metabolic Activation: NONE, Method: PREINCUBATION inactive; negative | Test System: AMES SALMONELLA TYPHIMURIUM, Strain/Indicator: TA100, Metabolic Activation: RAT, LIVER, S-9, AROCLOR 1254, Method: PREINCUBATION inactive; negative | Test System: AMES SALMONELLA TYPHIMURIUM, Strain/Indicator: TA1535, Metabolic Activation: HAMSTER, LIVER, S-9, AROCLOR 1254, Method: PREINCUBATION inactive; negative | Test System: AMES SALMONELLA TYPHIMURIUM, Strain/Indicator: TA1535, Metabolic Activation: NONE, Method: PREINCUBATION inactive; negative | Test System: AMES SALMONELLA TYPHIMURIUM, Strain/Indicator: TA1535, Metabolic Activation: RAT, LIVER, S-9, AROCLOR 1254, Method: PREINCUBATION inactive; negative | Test System: AMES SALMONELLA TYPHIMURIUM, Strain/Indicator: TA1537, Metabolic Activation: HAMSTER, LIVER, S-9, AROCLOR 1254, Method: PREINCUBATION inactive; negative | Test System: AMES SALMONELLA TYPHIMURIUM, Strain/Indicator: TA1537, Metabolic Activation: NONE, Method: PREINCUBATION inactive; negative | Test System: AMES SALMONELLA TYPHIMURIUM, Strain/Indicator: TA1537, Metabolic Activation: RAT, LIVER, S-9, AROCLOR 1254, Method: PREINCUBATION inactive; negative | Test System: MOUSE LYMPHOMA, Strain/Indicator: L5178Y (TK+/TK-), Metabolic Activation: NONE, Method: SUSPENSION/PLATE inactive; negative | Test System: MOUSE LYMPHOMA, Strain/Indicator: L5178Y (TK+/TK-), Metabolic Activation: RAT, LIVER, S-9, AROCLOR 1254, Method: SUSPENSION/PLATE inactive; negative

c1ccc(-c2ccccn2)nc1
inactive: Test System: AMES SALMONELLA TYPHIMURIUM, Strain/Indicator: TA1535, Metabolic Activation: RAT, LIVER, S-9, PHENOBARBITAL, Method: STANDARD PLATE inactive; negative | Test System: AMES SALMONELLA TYPHIMURIUM, Strain/Indicator: TA1537, Metabolic Activation: RAT, LIVER, S-9, PHENOBARBITAL, Method: STANDARD PLATE inactive; negative | Test System: AMES SALMONELLA TYPHIMURIUM, Strain/Indicator: TA1538, Metabolic Activation: RAT, LIVER, S-9, PHENOBARBITAL, Method: STANDARD PLATE inactive; negative
active: Test System: AMES SALMONELLA TYPHIMURIUM, Strain/Indicator: TA97, Metabolic Activation: RAT, LIVER, S-9, PHENOBARBITAL, Method: STANDARD PLATE active; positive | Test System: AMES SALMONELLA TYPHIMURIUM, Strain/Indicator: TA98, Metabolic Activation: RAT, LIVER, S-9, PHENOBARBITAL, Method: STANDARD PLATE active; positive | Test System: AMES SALMONELLA TYPHIMURIUM, Strain/Indicator: TA100, Metabolic Activation: RAT, LIVER, S-9, PHENOBARBITAL, Method: STANDARD PLATE active; positive

CNC(=O)OCc1nc(SC)n(C)c1COC(=O)NC
active: Test System: Mouse lymphoma, Strain/Indicator: L5178Y (tk+/tk-), Metabolic Activation: None, Method: Suspension/plate active; positive | Test System: Mouse lymphoma, Strain/Indicator: L5178Y (tk+/tk-), Metabolic Activation: Rat, Liver, S-9, Aroclor 1254, Method: Suspension/plate active; positive

c1ccc2cc3cc4ccccc4cc3cc2c1
active: Test System: AMES SALMONELLA TYPHIMURIUM, Strain/Indicator: TA98, Metabolic Activation: RAT, LIVER, S-9, 3-METHYLCHOLANTHRENE, Method: STANDARD PLATE active; positive | Test System: AMES SALMONELLA TYPHIMURIUM, Strain/Indicator: TA98, Metabolic Activation: RAT, LIVER, S-9, AROCLOR 1254, Method: STANDARD PLATE active; positive | Test System: AMES SALMONELLA TYPHIMURIUM, Strain/Indicator: TA100, Metabolic Activation: MOUSE, LIVER, S-9, 2,3,7,8-TETRACHLORODIBENZO-P-DIOXIN, Method: STANDARD PLATE active; positive | Test System: AMES SALMONELLA TYPHIMURIUM, Strain/Indicator: TA100, Metabolic Activation: MOUSE, LIVER, S-9, 3-METHYLCHOLANTHRENE, Method: STANDARD PLATE active; positive | Test System: AMES SALMONELLA TYPHIMURIUM, Strain/Indicator: TA100, Metabolic Activation: RAT, LIVER, S-9, 3-METHYLCHOLANTHRENE, Method: STANDARD PLATE active; positive | Test System: AMES SALMONELLA TYPHIMURIUM, Strain/Indicator: TA100, Metabolic Activation: RAT, LIVER, S-9, AROCLOR 1254, Method: STANDARD PLATE active; positive | Test System: AMES SALMONELLA TYPHIMURIUM, Strain/Indicator: TA1537, Metabolic Activation: RAT, LIVER, S-9, 3-METHYLCHOLANTHRENE, Method: STANDARD PLATE active; positive | Test System: AMES SALMONELLA TYPHIMURIUM, Strain/Indicator: TA1537, Metabolic Activation: RAT, LIVER, S-9, AROCLOR 1254, Method: STANDARD PLATE active; positive | Test System: AMES SALMONELLA TYPHIMURIUM, Strain/Indicator: TA1538, Metabolic Activation: RAT, LIVER, S-9, 3-METHYLCHOLANTHRENE, Method: STANDARD PLATE active; positive | Test System: AMES SALMONELLA TYPHIMURIUM, Strain/Indicator: TA1538, Metabolic Activation: RAT, LIVER, S-9, AROCLOR 1254, Method: STANDARD PLATE active; positive
inactive: Test System: AMES SALMONELLA TYPHIMURIUM, Strain/Indicator: TA98, Metabolic Activation: NONE, Method: STANDARD PLATE inactive; negative | Test System: AMES SALMONELLA TYPHIMURIUM, Strain/Indicator: TA100, Metabolic Activation: NONE, Method: STANDARD PLATE inactive; negative | Test System: AMES SALMONELLA TYPHIMURIUM, Strain/Indicator: TA1535, Metabolic Activation: NONE, Method: STANDARD PLATE inactive; negative | Test System: AMES SALMONELLA TYPHIMURIUM, Strain/Indicator: TA1535, Metabolic Activation: RAT, LIVER, S-9, 3-METHYLCHOLANTHRENE, Method: STANDARD PLATE inactive; negative | Test System: AMES SALMONELLA TYPHIMURIUM, Strain/Indicator: TA1535, Metabolic Activation: RAT, LIVER, S-9, AROCLOR 1254, Method: STANDARD PLATE inactive; negative | Test System: AMES SALMONELLA TYPHIMURIUM, Strain/Indicator: TA1537, Metabolic Activation: NONE, Method: STANDARD PLATE inactive; negative | Test System: AMES SALMONELLA TYPHIMURIUM, Strain/Indicator: TA1538, Metabolic Activation: NONE, Method: STANDARD PLATE inactive; negative
